Data published in patent US20190000789A1, “COMPOSITION AND METHOD FOR TREATING INFECTIONS CAUSED BY VANCOMYCIN-RESISTANT INFECTIOUS AGENTS IN A SUBJECT” (priority 2015, published 2019).
Read-outs that look alike come from different tables or passages of the source.

Tests used:
Format in all cases: cell-based
[1] = test system: S. coelicolor LAG2 ΔvanX (LAG4); experiment: MIC of vancomycin on MM agar plates with added D-Ala; details: Streptomyces coelicolor
Excerpt: VanX effectively eradicates the D-Ala-D-Ala dipeptide, thereby counteracting the accumulation of wild-type precursors and supporting vancomycin resistance (Lessard and Walsh, 1999; Tan et al., 2002). Therefore, a vanX null mutant was created using a similar strategy as for ddl, replacing the coding region of vanX by the apramycin resistance cassette aacC4. The mutant was created in both the parental strain S. coelicolor M145 and in its ddl suppressor mutant LAG2, generating LAG3 (M145 ΔvanX) and LAG4 (M145 Δddl ΔvanX vanS::IS466A), respectively.
LAG4 produced 20% wt precursors prior to the addition of D-Ala.
Escherichia coli strains JM109 (Sambrook et al., 1989) and ET12567 (Kieser et al., 2000) were used for routine cloning procedures and for extracting non-methylated DNA, respectively. Cells of E. coli were grown in Luria-Berani broth (LB) at 37° C. Streptomyces coelicolor A3(2) M145 was the parent of all mutants described in this work. All media and routine Streptomyces techniques were carried out as described (Kieser et al., 2000). SFM (soy flour mannitol) agar plates were used for propagating S. coelicolor strains and to prepare spore suspensions. For liquid-grown cultures, S. coelicolor mycelia were grown in normal minimal media with phosphate (NMMP) supplemented with 1% (w/v) mannitol as the sole carbon source. The MIC of vancomycin against S. coelicolor M145 and its mutant derivatives were determined by growth on minimal media (MM) agar plates supplemented with 1% mannitol as the sole carbon source, and 0, 2, 4, 8, 16, 32, 64, 128, 256 or 512 μg/ml vancomycin, in combination with 0, 1, 5, 10 or 50 mM of D-Ala or L-Ala. The vanX deletion mutants have been tested with 1, 5, 10, 50 and 100 μM D-Ala and L-Ala.

[2] = test system: vanA-positive Enterococcus faecium clinical isolate vanA10; experiment: MIC of vancomycin by serial dilution in 96-well plates with or without D-Ala; details: for MIC: Enterococcus faecium
Description: (§1) Having established the important role of D-Ala in enhancing the efficacy of vancomycin against vancomycin-resistant S. coelicolor cells, next, its effect on the resistance of clinical isolates of Enterococcus faecium, which were vanA-positive strains, was assessed. MIC values were calculated by testing a serial dilution of vancomycin in the presence or absence of D-Ala in triplicate (Table 3).
(§2) The MIC was determined by measurement of the OD600 or by visual assessment, following the Clinical Laboratory and Standards Institute (CLSI) guidelines. […] This value compares to intermediate instead of total resistance. The strains were serially diluted in a 96-well plate and growth was assayed at OD600. The steps down refer to CSLI guidelines for clinical MIC measurements.
(§3) Five vanA-positive Enterococcus faecium strains were collected in 2011 and 2014 from patients in the Erasmus University Medical Centre, Rotterdam, The Netherlands. Presence of the vanA gene was confirmed by real-time PCR with the LIGHTCYCLER® 480 instrument (Roche Diagnostics, Almere, The Netherlands) with the primers vanA F1 and vanA R1, and the vanA probe. The resistance profile of these isolates was determined as MIC values using the VITEK II (BioMerieux) system AST-P586. To determine the MIC of vancomycin against E. faecium, cells were grown overnight on Trypticase Soy Agar (TSA) blood agar plates (Becton Dickinson, Breda, The Netherlands) and suspended in 0.9% NaCl until OD600 0.5 (±0.05). Of this suspension, 10 μl was dispensed into wells of sterile flat-bottom 96-well polystyrene tissue culture plates (Greiner Bio-One, Alphen aan Den Rijn, The Netherlands) containing serial dilutions of vancomycin in 190 μl of a 1:1 mixture of Fetal Bovine Serum (FBS) (Gibco, Bleiswijk, The Netherlands) and Iscove's Modified Dulbecco's Medium (IMDM) (without phenolred, Gibco, Bleiswijk, The Netherlands), and in the presence or absence of 50 mM D-alanine (Alfa Aesar, Ward Hill, Mass., USA). Plates were incubated for 18-24 hours at 37° C. and MIC values determined visually following the CLSI guidelines, or by spectrophotometer at 600 nm.

[3] = test system: vanA-positive Enterococcus faecium clinical isolate vanA1; experiment: as above; details: for MIC: Enterococcus faecium
Description: as §1, §2, §3

[4] = test system: vanA-positive Enterococcus faecium clinical isolate vanA2; experiment: as above; details: for MIC: Enterococcus faecium
Description: as §1, §2, §3

[5] = test system: vanA-positive Enterococcus faecium clinical isolate vanA3; experiment: as above; details: for MIC: Enterococcus faecium
Description: as §1, §2, §3

[6] = test system: vanA-positive Enterococcus faecium clinical isolate vanA4; experiment: as above; details: for MIC: Enterococcus faecium
Description: as §1, §2, §3

## CN[C@H](CC(C)C)C(=O)N[C@H]1C(=O)N[C@@H](CC(N)=O)C(=O)N[C@H]2C(=O)N[C@H]3C(=O)N[C@H](C(=O)N[C@H](C(=O)O)c4cc(O)cc(O)c4-c4cc3ccc4O)[C@H](O)c3ccc(c(Cl)c3)Oc3cc2cc(c3O[C@@H]2O[C@H](CO)[C@@H](O)[C@H](O)[C@H]2O[C@H]2C[C@](C)(N)[C@H](O)[C@H](C)O2)Oc2ccc(cc2Cl)[C@H]1O [vancomycin]
[1]; read-out: MIC of vancomycin, LAG2 ΔvanX, 0 μM D-Ala
  MIC: 64 mg/L
[1]; read-out: MIC of vancomycin, LAG2 ΔvanX, 10 μM D-Ala
  MIC: 32 mg/L
[1]; read-out: MIC of vancomycin, LAG2 ΔvanX, 50 μM D-Ala
  MIC: 8 mg/L
[1]; read-out: MIC of vancomycin, LAG2 ΔvanX, 100 μM D-Ala
  MIC: 2 mg/L
[2]; vanA10, 50 mM D-Ala, read-out: MIC with 50 mM D-Ala
  MIC: 16 mg/L
[2]; vanA10, read-out: MIC without D-Ala
  MIC: 2050 mg/L
[2]; vanA10, 50 mM D-Ala, approximation based on 2-fold dilution steps
  reduction of MIC: ~128
[3]; vanA1, 50 mM D-Ala, read-out: MIC with 50 mM D-Ala
  MIC: 256 mg/L
[3]; vanA1, read-out: MIC without D-Ala
  MIC: 4100 mg/L
[3]; vanA1, 50 mM D-Ala, approximation based on 2-fold dilution steps
  reduction of MIC: ~16
[4]; vanA2, 50 mM D-Ala, read-out: MIC with 50 mM D-Ala
  MIC: 256 mg/L
[4]; vanA2, read-out: MIC without D-Ala
  MIC: 4100 mg/L
[4]; vanA2, 50 mM D-Ala, approximation based on 2-fold dilution steps
  reduction of MIC: ~16
[5]; vanA3, 50 mM D-Ala, read-out: MIC with 50 mM D-Ala
  MIC: 128 mg/L
[5]; vanA3, read-out: MIC without D-Ala
  MIC: 4100 mg/L
[5]; vanA3, 50 mM D-Ala, approximation based on 2-fold dilution steps
  reduction of MIC: ~32
[6]; vanA4, 50 mM D-Ala, read-out: MIC with 50 mM D-Ala
  MIC: 128 mg/L
[6]; vanA4, read-out: MIC without D-Ala
  MIC: 4100 mg/L
[6]; vanA4, 50 mM D-Ala, approximation based on 2-fold dilution steps
  reduction of MIC: ~32
